# According to ChEMBL document CHEMBL4507311, “Data for DCP probe A-1155463” (2021):
# How the values were obtained:
# [1] = system: Tyrosine-protein kinase ABL1 (Homo sapiens), P00519 [H396P]; details: Compound concentration 1000.0 nM
# [2] = system: Tyrosine-protein kinase ABL1 (Homo sapiens), P00519 [M351T]; details: Compound concentration 1000.0 nM
# [3] = target: Activin receptor type-1B (Homo sapiens) (UniProt P36896); details: Compound concentration 1000.0 nM
# [4] = target: RAC-gamma serine/threonine-protein kinase (Homo sapiens) (UniProt Q9Y243); details: Compound concentration 1000.0 nM
# [5] = target: Cyclin-dependent kinase 4 (Homo sapiens) (UniProt P11802); details: Compound concentration 1000.0 nM
# [6] = target: Ephrin type-A receptor 6 (Homo sapiens) (UniProt Q9UF33); details: Compound concentration 1000.0 nM
# [7] = target: Ephrin type-B receptor 6 (Homo sapiens) (UniProt O15197); details: Compound concentration 1000.0 nM
# [8] = target: Receptor tyrosine-protein kinase erbB-2 (Homo sapiens) (UniProt P04626); details: Compound concentration 1000.0 nM
# [9] = target: Vascular endothelial growth factor receptor 1 (Homo sapiens) (UniProt P17948); details: Compound concentration 1000.0 nM
# Chain of Vascular endothelial growth factor receptor 1 (Homo sapiens) (P17948 whole entry): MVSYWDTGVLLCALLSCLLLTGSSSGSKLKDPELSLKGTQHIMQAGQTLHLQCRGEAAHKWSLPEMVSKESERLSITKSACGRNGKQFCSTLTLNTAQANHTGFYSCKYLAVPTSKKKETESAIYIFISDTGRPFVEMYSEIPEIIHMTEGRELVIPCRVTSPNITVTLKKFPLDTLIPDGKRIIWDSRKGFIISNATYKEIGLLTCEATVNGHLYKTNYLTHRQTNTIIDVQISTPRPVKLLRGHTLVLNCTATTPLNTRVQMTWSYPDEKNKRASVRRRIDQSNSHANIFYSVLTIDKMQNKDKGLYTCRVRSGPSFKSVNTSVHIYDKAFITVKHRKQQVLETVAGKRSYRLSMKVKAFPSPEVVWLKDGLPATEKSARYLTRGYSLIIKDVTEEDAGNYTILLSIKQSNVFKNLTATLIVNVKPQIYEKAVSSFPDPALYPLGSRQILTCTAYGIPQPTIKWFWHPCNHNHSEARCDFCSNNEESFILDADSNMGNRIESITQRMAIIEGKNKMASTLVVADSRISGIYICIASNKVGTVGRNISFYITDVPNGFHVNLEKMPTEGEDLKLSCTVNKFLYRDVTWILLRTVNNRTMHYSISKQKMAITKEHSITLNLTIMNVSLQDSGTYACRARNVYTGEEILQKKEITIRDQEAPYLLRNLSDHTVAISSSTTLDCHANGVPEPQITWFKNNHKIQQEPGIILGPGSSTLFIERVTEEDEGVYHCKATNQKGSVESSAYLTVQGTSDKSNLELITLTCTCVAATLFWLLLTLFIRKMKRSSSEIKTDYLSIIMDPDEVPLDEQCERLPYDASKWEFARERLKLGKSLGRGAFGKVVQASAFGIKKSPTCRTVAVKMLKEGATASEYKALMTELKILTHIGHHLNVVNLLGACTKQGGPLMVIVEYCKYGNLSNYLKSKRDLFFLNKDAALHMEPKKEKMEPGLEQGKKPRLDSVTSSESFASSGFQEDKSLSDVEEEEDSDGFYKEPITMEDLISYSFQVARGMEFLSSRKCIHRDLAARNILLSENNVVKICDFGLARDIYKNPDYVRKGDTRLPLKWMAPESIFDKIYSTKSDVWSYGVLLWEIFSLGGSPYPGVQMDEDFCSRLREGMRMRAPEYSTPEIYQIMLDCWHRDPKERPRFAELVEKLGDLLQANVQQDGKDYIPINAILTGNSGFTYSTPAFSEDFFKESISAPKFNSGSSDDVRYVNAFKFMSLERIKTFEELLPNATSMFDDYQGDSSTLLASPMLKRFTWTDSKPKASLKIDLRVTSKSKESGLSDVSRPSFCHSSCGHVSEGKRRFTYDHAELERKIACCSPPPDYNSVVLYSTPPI
# [10] = target: Receptor-type tyrosine-protein kinase FLT3 (Homo sapiens) (UniProt P36888); details: Compound concentration 1000.0 nM
# [11] = system: Receptor-type tyrosine-protein kinase FLT3 (Homo sapiens), P36888 [UNDEFINED MUTATION]; details: Compound concentration 1000.0 nM
# [12] = system: Mast/stem cell growth factor receptor Kit (Homo sapiens), P10721 [D816V]; details: Compound concentration 1000.0 nM
# [13] = target: Mast/stem cell growth factor receptor Kit (Homo sapiens) (UniProt P10721); details: Compound concentration 1000.0 nM
# Chain of Mast/stem cell growth factor receptor Kit (Homo sapiens) (P10721 whole entry): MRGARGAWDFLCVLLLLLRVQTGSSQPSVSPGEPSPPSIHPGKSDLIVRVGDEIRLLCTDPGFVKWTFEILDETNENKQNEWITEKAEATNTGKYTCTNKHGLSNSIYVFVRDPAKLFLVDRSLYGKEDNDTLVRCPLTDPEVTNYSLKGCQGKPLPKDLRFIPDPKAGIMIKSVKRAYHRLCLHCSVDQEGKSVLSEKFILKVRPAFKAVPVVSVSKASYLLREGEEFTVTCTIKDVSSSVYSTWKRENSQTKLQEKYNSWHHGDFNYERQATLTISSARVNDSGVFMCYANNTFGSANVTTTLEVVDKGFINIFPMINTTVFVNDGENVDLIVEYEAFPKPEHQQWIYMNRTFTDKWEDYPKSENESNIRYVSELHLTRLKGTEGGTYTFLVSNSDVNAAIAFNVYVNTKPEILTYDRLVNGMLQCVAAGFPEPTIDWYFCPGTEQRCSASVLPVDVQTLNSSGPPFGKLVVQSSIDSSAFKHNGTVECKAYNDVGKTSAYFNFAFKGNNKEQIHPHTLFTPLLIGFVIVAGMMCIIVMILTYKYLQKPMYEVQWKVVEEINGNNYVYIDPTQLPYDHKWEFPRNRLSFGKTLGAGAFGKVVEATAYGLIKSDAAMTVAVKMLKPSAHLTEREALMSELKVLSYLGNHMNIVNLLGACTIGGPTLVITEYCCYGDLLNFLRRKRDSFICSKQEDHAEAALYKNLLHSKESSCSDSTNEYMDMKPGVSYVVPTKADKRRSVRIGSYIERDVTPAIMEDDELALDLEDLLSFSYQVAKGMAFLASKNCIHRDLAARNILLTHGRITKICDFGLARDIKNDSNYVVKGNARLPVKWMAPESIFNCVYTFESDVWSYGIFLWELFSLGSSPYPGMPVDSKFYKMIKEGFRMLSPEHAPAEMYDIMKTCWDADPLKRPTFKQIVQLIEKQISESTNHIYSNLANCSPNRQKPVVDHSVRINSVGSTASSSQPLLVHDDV
# [14] = target: Serine/threonine-protein kinase LATS2 (Homo sapiens) (UniProt Q9NRM7); details: Compound concentration 1000.0 nM
# [15] = target: Mitogen-activated protein kinase kinase kinase kinase 2 (Homo sapiens) (UniProt Q12851); details: Compound concentration 1000.0 nM
# [16] = target: MAP kinase-activated protein kinase 2 (Homo sapiens) (UniProt P49137); details: Compound concentration 1000.0 nM
# [17] = target: Mitogen-activated protein kinase kinase kinase 11 (Homo sapiens) (UniProt Q16584); details: Compound concentration 1000.0 nM
# Chain of Mitogen-activated protein kinase kinase kinase 11 (Homo sapiens) (Q16584 whole entry, looked up): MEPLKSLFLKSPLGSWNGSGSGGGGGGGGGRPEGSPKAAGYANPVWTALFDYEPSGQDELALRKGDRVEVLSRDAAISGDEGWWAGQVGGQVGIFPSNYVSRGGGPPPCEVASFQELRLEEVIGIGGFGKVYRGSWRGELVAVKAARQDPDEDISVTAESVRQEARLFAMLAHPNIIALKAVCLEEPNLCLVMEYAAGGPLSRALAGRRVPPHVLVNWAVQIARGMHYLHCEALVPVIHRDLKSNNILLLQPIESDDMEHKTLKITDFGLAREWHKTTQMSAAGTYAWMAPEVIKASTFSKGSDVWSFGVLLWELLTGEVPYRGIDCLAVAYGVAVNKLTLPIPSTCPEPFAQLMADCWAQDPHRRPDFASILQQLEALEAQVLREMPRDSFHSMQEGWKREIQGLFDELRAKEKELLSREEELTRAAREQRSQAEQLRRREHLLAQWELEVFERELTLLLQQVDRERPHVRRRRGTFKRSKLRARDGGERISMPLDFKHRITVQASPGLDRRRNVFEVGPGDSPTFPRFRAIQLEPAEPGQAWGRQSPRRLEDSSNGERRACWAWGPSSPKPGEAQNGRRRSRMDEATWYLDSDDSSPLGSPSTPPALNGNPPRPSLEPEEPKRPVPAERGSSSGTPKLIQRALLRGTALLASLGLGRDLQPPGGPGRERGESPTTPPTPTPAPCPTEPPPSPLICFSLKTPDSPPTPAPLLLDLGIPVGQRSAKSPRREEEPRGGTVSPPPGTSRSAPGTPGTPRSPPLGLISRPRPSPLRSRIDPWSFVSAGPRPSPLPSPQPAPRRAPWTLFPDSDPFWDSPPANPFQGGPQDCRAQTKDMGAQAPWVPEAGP
# [18] = target: Macrophage-stimulating protein receptor (Homo sapiens) (UniProt Q04912); details: Compound concentration 1000.0 nM
# [19] = target: Serine/threonine-protein kinase 24 (Homo sapiens) (UniProt Q9Y6E0); details: Compound concentration 1000.0 nM
# [20] = target: Myosin light chain kinase, smooth muscle (Homo sapiens) (UniProt Q15746); details: Compound concentration 1000.0 nM
# [21] = target: Cyclin-dependent kinase 14 (Homo sapiens) (UniProt O94921); details: Compound concentration 1000.0 nM
# [22] = target: Phosphatidylinositol 4-phosphate 3-kinase C2 domain-containing subunit beta (Homo sapiens) (UniProt O00750); details: Compound concentration 1000.0 nM
# [23] = target: Phosphatidylinositol 4,5-bisphosphate 3-kinase catalytic subunit beta isoform (Homo sapiens) (UniProt P42338); details: Compound concentration 1000.0 nM
# [24] = target: 1-phosphatidylinositol 3-phosphate 5-kinase (Homo sapiens) (UniProt Q9Y2I7); details: Compound concentration 1000.0 nM
# [25] = target: Serine/threonine-protein kinase D3 (Homo sapiens) (UniProt O94806); details: Compound concentration 1000.0 nM
# [26] = target: Protein-tyrosine kinase 2-beta (Homo sapiens) (UniProt Q14289); details: Compound concentration 1000.0 nM
# [27] = system: Proto-oncogene tyrosine-protein kinase receptor Ret (Homo sapiens), P07949 [V804L]; details: Compound concentration 1000.0 nM
# Chain of Proto-oncogene tyrosine-protein kinase receptor Ret (Homo sapiens), P07949 [V804L] (P07949 whole entry V804L): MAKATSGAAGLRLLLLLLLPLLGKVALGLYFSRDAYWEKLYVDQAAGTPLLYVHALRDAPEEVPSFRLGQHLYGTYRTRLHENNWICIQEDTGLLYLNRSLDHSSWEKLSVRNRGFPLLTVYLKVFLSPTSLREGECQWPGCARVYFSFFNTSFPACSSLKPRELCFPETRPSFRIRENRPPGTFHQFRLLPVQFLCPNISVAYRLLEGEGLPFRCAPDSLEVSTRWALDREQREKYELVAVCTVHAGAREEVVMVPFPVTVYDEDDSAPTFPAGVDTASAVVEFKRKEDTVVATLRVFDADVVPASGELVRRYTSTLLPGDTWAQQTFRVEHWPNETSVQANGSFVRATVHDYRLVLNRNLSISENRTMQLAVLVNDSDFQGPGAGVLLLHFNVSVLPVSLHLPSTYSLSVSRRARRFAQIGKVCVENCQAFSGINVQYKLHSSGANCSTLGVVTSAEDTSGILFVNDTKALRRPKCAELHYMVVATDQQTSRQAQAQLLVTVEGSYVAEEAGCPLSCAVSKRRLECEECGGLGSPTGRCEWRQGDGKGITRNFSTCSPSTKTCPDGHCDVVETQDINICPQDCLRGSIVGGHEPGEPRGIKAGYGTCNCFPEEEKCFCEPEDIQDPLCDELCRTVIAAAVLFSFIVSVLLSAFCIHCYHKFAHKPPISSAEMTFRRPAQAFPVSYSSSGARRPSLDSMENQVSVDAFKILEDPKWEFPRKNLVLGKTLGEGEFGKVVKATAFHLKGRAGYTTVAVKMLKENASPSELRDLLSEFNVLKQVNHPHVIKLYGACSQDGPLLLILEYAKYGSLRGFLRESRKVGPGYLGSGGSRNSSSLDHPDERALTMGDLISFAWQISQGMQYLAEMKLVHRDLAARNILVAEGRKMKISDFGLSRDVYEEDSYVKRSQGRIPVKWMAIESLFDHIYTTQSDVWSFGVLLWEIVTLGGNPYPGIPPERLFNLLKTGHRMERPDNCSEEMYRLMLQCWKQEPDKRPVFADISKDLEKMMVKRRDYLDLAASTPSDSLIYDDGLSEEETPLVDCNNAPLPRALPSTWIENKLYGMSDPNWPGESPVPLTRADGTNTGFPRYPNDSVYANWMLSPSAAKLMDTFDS
# [28] = target: Serine/threonine-protein kinase RIO1 (Homo sapiens) (UniProt Q9BRS2); details: Compound concentration 1000.0 nM
# Chain of Serine/threonine-protein kinase RIO1 (Homo sapiens) (Q9BRS2 whole entry): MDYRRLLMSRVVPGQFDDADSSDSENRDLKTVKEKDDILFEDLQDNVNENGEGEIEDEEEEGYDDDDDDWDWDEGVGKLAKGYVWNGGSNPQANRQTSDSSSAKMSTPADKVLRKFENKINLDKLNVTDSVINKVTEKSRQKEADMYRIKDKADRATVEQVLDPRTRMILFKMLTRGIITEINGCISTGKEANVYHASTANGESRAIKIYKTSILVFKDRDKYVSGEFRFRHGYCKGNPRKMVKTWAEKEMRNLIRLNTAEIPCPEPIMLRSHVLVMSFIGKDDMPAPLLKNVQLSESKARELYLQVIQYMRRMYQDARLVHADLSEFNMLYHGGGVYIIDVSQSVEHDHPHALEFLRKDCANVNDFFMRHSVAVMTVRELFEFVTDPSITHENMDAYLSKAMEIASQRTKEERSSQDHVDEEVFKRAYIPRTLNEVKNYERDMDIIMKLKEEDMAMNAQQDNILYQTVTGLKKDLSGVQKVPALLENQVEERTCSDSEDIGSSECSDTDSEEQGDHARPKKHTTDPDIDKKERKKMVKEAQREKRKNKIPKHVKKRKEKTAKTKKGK
# [29] = target: Proto-oncogene tyrosine-protein kinase ROS (Homo sapiens) (UniProt P08922); details: Compound concentration 1000.0 nM
# [30] = target: Ribosomal protein S6 kinase alpha-2 (Homo sapiens) (UniProt Q15349); details: Compound concentration 1000.0 nM
# [31] = target: Dual specificity testis-specific protein kinase 1 (Homo sapiens) (UniProt Q15569); details: Compound concentration 1000.0 nM
# [32] = target: Tyrosine-protein kinase receptor Tie-1 (Homo sapiens) (UniProt P35590); details: Compound concentration 1000.0 nM
# [33] = target: Serine/threonine-protein kinase TNNI3K (Homo sapiens) (UniProt Q59H18); details: Compound concentration 1000.0 nM
# [34] = target: Serine/threonine-protein kinase WNK1 (Homo sapiens) (UniProt Q9H4A3); details: Compound concentration 1000.0 nM
# [35] = target: T1, 5-hydroxytryptamine receptor 1A (Homo sapiens) (UniProt P08908); details: Compound concentration 10.0 uM
# T1 sequence (whole entry): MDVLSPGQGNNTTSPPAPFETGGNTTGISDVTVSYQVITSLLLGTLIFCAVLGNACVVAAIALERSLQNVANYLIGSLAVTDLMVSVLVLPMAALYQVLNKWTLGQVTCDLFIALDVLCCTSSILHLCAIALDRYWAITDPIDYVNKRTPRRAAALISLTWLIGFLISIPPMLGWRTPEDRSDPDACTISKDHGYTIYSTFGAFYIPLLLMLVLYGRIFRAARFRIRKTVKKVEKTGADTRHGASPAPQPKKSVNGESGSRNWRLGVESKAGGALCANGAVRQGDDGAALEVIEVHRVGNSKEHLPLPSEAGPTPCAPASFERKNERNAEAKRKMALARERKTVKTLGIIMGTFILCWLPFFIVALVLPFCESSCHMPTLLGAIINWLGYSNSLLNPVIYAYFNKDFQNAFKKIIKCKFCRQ
# [36] = target: 5-hydroxytryptamine receptor 2A (Homo sapiens) (UniProt P28223); details: Compound concentration 10.0 uM
# [37] = target: GABA-A receptor; anion channel (Rattus norvegicus) (UniProt O09028+P15431+P18506+P18508+P19969+P20236+P23574+P23576+P28471+P28473+P30191+P62813+P63079+P63138+Q91ZM7+Q9ES14); details: Compound concentration 10.0 uM
# [38] = target: Sigma non-opioid intracellular receptor 1 (Homo sapiens, UniProt Q99720); details: Compound concentration 10.0 uM
# Chain of Sigma non-opioid intracellular receptor 1 (Q99720 whole entry): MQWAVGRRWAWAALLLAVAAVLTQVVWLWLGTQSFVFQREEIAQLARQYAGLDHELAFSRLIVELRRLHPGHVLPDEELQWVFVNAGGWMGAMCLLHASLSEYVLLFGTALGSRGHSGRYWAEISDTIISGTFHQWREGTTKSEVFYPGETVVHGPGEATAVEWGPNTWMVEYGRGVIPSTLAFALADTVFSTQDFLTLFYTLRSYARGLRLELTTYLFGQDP
compound,measurement,setting,value
CN(C)CC#Cc1ccc(OCCCc2sc(N3CCc4cccc(C(=O)Nc5nc6ccccc6s5)c4C3)nc2C(=O)O)c(F)c1 [A-1155463],residual activity,[1],99%
same,residual activity,[2],91%
same,residual activity,[3],100%
same,residual activity,[4],100%
same,residual activity,[5],100%
same,residual activity,[6],100%
same,residual activity,[7],100%
same,residual activity,[8],100%
same,residual activity,[9],92%
same,residual activity,[10],80%
same,residual activity,[11],100%
same,residual activity,[12],100%
same,residual activity,[13],85%
same,residual activity,[14],95%
same,residual activity,[15],100%
same,residual activity,[16],88%
same,residual activity,[17],100%
same,residual activity,[18],99%
same,residual activity,[19],93%
same,residual activity,[20],81%
same,residual activity,[21],100%
same,residual activity,[22],100%
same,residual activity,[23],100%
same,residual activity,[24],100%
same,residual activity,[25],93%
same,residual activity,[26],100%
same,residual activity,[27],100%
same,residual activity,[28],91%
same,residual activity,[29],93%
same,residual activity,[30],100%
same,residual activity,[31],100%
same,residual activity,[32],85%
same,residual activity,[33],100%
same,residual activity,[34],90%
same,inhibition,[35],5.18%
same,inhibition,[36],40.1%
same,inhibition,[37],36.8%
same,inhibition,[38],53.3%
